What was measured:
Format in all cases: cell-based
SKOV3 cells = assay: Two-drug synergy of rotenone and MTHFD2 inhibitor on viability (SynergyFinder); conditions: MTHFD2 inhibitor combined with complex I inhibitor rotenone
Source text: FIG. 11 Investigating alternative metabolic pathways to rescue UQCR11-null cells from collateral lethal targeting of MTHFD2. (a) Correlation between NDUFS7 mRNA expression and copy-number alterations of the 19p13.3 locus, represented by UQCR11 copy-number in TCGA OVCA dataset (n=303). Correlations estimated using Spearman's rank correlation test. (b) Gene expression of NDUFS7 measured via qRT-PCR in UQCR11-null lines (OVCAR8, CAOV3, HeyA8) relative to NDUFS7 expression in UQCR11-intact line (SKOV3). Data representative of two independent experiments presented as mean±s.d. (n=5), analyzed using ordinary one-way ANOVA with Dunnett's correction for multiple comparisons. (c) Doseresponse curve for single-agent inhibition in SKOV3 cells by either Complex I inhibitor, rotenone, or MTHFD2 inhibitor. […] Data are representative of two independent experiments and presented as mean±s.e.m (n=3) and analyzed using two-tailed Welch's t-test. […] Viability decrease was measured 72 h after inhibitor treatment relative to vehicle control. […] (n=6) and analyzed using ordinary 2-way ANOVA with Sidak's correction for multiple comparisons. […] (n=4) and analyzed using two-tailed Welch's t-test. […] Viability decrease was measured 72 h after inhibitor treatment relative to vehicle control. […] (n=5) and analyzed using two-tailed Welch's t-test.

SKOV3 and OVCAR8 cells [1] = assay: De novo pyrimidine synthesis flux with [13C4]-aspartate tracer; conditions: SKOV3 and OVCAR8, with vs without MTHFD2 inhibitor
[2] = test system: parental ovarian cancer lines and isogenic SKOV3 lines; assay: Viability with MTHFD2 inhibitor and uridine supplementation; conditions: UQCR11-null parental and SKOV3 shUQCR11 cells compared with UQCR11-intact cells
Method: (§1) FIG. 15 Investigating metabolic consequence of Complex III impairment and activity of paralogous pathways other than oxidative MTHFD2. (a) Effect of MTHFD2 inhibitor ([…]) and uridine (50 μM) supplementation on viability of parental ovarian cancer lines that are UQCR11—intact (SKOV3) or UQCR11-null (HeyA8, OVCAR8, CAOV3). Data are representative of two independent experiments and presented as mean±s.d. (n=6). Data analyzed with one-way ANOVA with Tukey's correction for multiple comparisons. (b) Effect of MTHFD2 inhibitor and uridine supplementation on viability of isogenic SKOV3 lines expressing shScramble or shUQCR11. […] Data analyzed with one-way ANOVA with Tukey's correction for multiple comparisons. […] (n=6) and analyzed using two-tailed Student's t-test. (d) mRNA expression of NNT, IDH2, IDH3A measured via qRT-PCR after knocking down with shNNT, shIDH2, and shIDH3A, relative to scramble shRNA (shScr), verifying knockdown efficiency in SKOV3 and OVCAR8 cell-lines. […] Data analyzed using unpaired two-tailed Student's t-test. […] Data are analyzed using ordinary one-way ANOVA with multiple comparisons. […] Loss of viability calculated by comparing respective viability in vehicle control-treated cells to MTHFD2 inhibitor-treated cells. […] (n=6) and analyzed using ordinary one-way ANOVA with Dunnett's correction for multiple comparisons. Error bars are calculated using propagation of error principles.

SKOV3 and OVCAR8 cells [3] = assay: MTHFD2 inhibitor in cells with NNT, IDH2 or IDH3A knocked down; conditions: IDH2 or IDH3A knockdown, UQCR11-intact or -null cells, 10 μM, 72 h
Method: as §1

For `Cc1c(N2CCN(C)[C@@H](C)C2)ccc2c3c(c(=O)oc12)CN(C(=O)c1ccc(NS(C)(=O)=O)c(OC(F)(F)F)c1)CC3` [DS18561882], the “effect of co-inhibition on viability” value (SKOV3 cells) was “synergistic effect”, the “de novo pyrimidine synthesis flux” value (SKOV3 and OVCAR8 cells [1]) was “similarly reduced” and the proliferation [2] was “suppressed proliferation”. The “effect of MTHFD2 inhibition on viability” value (SKOV3 and OVCAR8 cells [3]) was “not influenced”.

Reference: patent US20260018245A1, “SYSTEMS AND METHODS FOR IDENTIFYING AND TARGETING COLLATERAL LETHAL GENES” (The Regents of the University of Michigan, priority 2022, published 2026)
